Data: the NIST ThermoML archive (doi:10.1021/je700140j)

Assay: refractive index (Na D-line) (dimensionless); xn = mol fraction of the nth substance listed
Details: 100.8 kPa, Liquid, Standard Abbe refractometry

OCCc1ccccc1 [2-phenylethanol] + CC(C)O
refractive index
Details	298.15 K	308.15 K	318.15 K
x2 = 0	1.53269	1.52852	1.52427
x2 = 0.05	1.52795	1.52391	1.51972
x2 = 0.1	1.523	1.51896	1.51478
x2 = 0.15	1.5178	1.51375	1.50956
x2 = 0.2	1.51235	1.50826	1.50405
x2 = 0.25	1.50661	1.50253	1.49832
x2 = 0.3	1.50063	1.49652	1.49228
x2 = 0.35	1.49437	1.49025	1.48598
x2 = 0.4	1.4878	1.48365	1.47938
x2 = 0.45	1.48091	1.47673	1.47245
x2 = 0.5	1.47367	1.4695	1.46522
x2 = 0.55	1.46611	1.46193	1.45763
x2 = 0.6	1.45816	1.45395	1.44964
x2 = 0.65	1.44975	1.44553	1.4412
x2 = 0.7	1.44087	1.43664	1.4323
x2 = 0.75	1.43149	1.42725	1.4229
x2 = 0.8	1.42156	1.41733	1.41297
x2 = 0.85	1.411	1.40678	1.40239
x2 = 0.9	1.39973	1.39547	1.39112
x2 = 0.95	1.38776	1.38342	1.37903

OCCc1ccccc1 [2-phenylethanol] + OCc1ccccc1
refractive index
Details	298.15 K	308.15 K	318.15 K
x2 = 0	1.53269	1.52852	1.52427
x2 = 0.05	1.53322	1.52911	1.52495
x2 = 0.1	1.53367	1.52961	1.52549
x2 = 0.15	1.5341	1.53006	1.52594
x2 = 0.2	1.53454	1.5305	1.52636
x2 = 0.25	1.53495	1.53089	1.52674
x2 = 0.3	1.53532	1.53125	1.5271
x2 = 0.35	1.53568	1.53159	1.52745
x2 = 0.4	1.53601	1.53193	1.52777
x2 = 0.45	1.53633	1.53225	1.52809
x2 = 0.5	1.53663	1.53255	1.52839
x2 = 0.55	1.53689	1.53281	1.52864
x2 = 0.6	1.53712	1.53304	1.52888
x2 = 0.65	1.53733	1.53325	1.5291
x2 = 0.7	1.53752	1.53344	1.52929
x2 = 0.75	1.53772	1.53362	1.52947
x2 = 0.8	1.53789	1.53377	1.52961
x2 = 0.85	1.53804	1.53391	1.52973
x2 = 0.9	1.53819	1.53403	1.52984
x2 = 0.95	1.53833	1.53414	1.52993

OCc1ccccc1 [benzenemethanol] + CC(C)O
refractive index
Details	298.15 K	308.15 K	318.15 K
x2 = 0	1.53843	1.53421	1.52994
x2 = 0.05	1.53277	1.52858	1.52435
x2 = 0.1	1.52684	1.52268	1.51849
x2 = 0.15	1.5207	1.51654	1.51233
x2 = 0.2	1.5143	1.51019	1.50598
x2 = 0.25	1.50772	1.50359	1.49935
x2 = 0.3	1.50089	1.49674	1.4925
x2 = 0.35	1.49383	1.48966	1.48542
x2 = 0.4	1.48652	1.48234	1.47809
x2 = 0.45	1.47899	1.4748	1.47053
x2 = 0.5	1.47118	1.46698	1.46269
x2 = 0.55	1.4631	1.45889	1.45458
x2 = 0.6	1.45472	1.4505	1.44616
x2 = 0.65	1.44605	1.44182	1.43746
x2 = 0.7	1.43707	1.43283	1.42848
x2 = 0.75	1.42774	1.4235	1.41916
x2 = 0.8	1.41804	1.4138	1.40943
x2 = 0.85	1.40795	1.40368	1.39933
x2 = 0.9	1.39746	1.39319	1.38883
x2 = 0.95	1.38648	1.38219	1.3778
